Test results published in US7723265B2, “Pesticide compositions containing oxalic acid” (Monsanto Technology, priority 2000, dated 2010).
Where two headings read alike, the source gives them in different places.

What was measured:
Format in all cases: in vivo
[1] = system: velvetleaf (Abutilon theophrasti, ABUTH); assay: Greenhouse test of herbicidal effectiveness (visual percent control) on velvetleaf
From the text: (§1) The following procedure was used for testing compositions of the Examples to determine herbicidal effectiveness, except where otherwise indicated.
(§2) Seeds of the plant species indicated were planted in 85 mm square pots in a soil mix which was previously steam sterilized and prefertilized with a 14-14-14 NPK slow release fertilizer at a rate of 3.6 kg/m3. The pots were placed in a greenhouse with sub-irrigation. About one week after emergence, seedlings were thinned as needed, including removal of any unhealthy or abnormal plants, to create a uniform series of test pots.
The plants were maintained for the duration of the test in the greenhouse where they received a minimum of 14 hours of light per day. […] Exposure temperatures were not precisely controlled but averaged about 27° C. during the day and about 18° C. during the night. Plants were sub-irrigated throughout the test to ensure adequate soil moisture levels.
(§3) Pots were assigned to different treatments in a randomized experimental design with 6 replications. A set of pots was left untreated as a reference against which effects of the treatments could later be evaluated.
(§4) Application of glyphosate compositions was made by spraying with a track sprayer fitted with a 9501E nozzle calibrated to deliver a spray volume of 93 liters per hectare (l/ha) at a pressure of 166 kilopascals (kPa). After treatment, pots were returned to the greenhouse until ready for evaluation.
Treatments were made using dilute aqueous compositions. These could be prepared as spray compositions directly from their ingredients, or by dilution with water of preformulated concentrate compositions.
For evaluation of herbicidal effectiveness, all plants in the test were examined by a single practiced technician, who recorded percent control, a visual measurement of the effectiveness of each treatment by comparison with untreated plants. […] The reported % control values represent the average for all replicates of each treatment.

[2] = system: Japanese millet (Echinochloa crus-galli var. frumentae, ECHCF); assay: Herbicidal effectiveness (percent control) on Japanese millet; details: comparison as worded in the text of the example
From the text: as §1
as §2, with “pots. […]” for “pots.”
as §3
as §4, with “evaluation. […]” for “evaluation.”
(§5) For evaluation of herbicidal effectiveness, all plants in the test were examined by a single practiced technician, who recorded percent control, a visual measurement of the effectiveness of each treatment by comparison with untreated plants. […]

velvetleaf (ABUTH) = assay: Rainfastness of Roundup UltraMax with oxalic acid on velvetleaf; details: glyphosate a.e.:oxalic acid 15:1; 0.25 inches of rain one or two hours after treatment, or no rain
Experimental: The rainfastedness of a Roundup UltraMax and oxalic acid, at a weight ratio of glyphosate a.e. to oxalic acid of 15:1, was evaluated. The Roundup UltraMax formulations were applied at rates of 300 and 500 g a.e./ha and evaluated with no rain, 0.25 inches of rain at one hour after treatment, and 0.25 inches of rain at two hours after treatment.

Indian Mustard (BRSJU) = assay: Herbicidal effectiveness (percent control) on Indian mustard; details: comparison as worded in the text of the example
From the text: as §1
as §2, with “pots. […]” for “pots.”
as §3
as §4, with “evaluation. […]” for “evaluation.”
as §5

sicklepod (CASOB) = assay: Herbicidal effectiveness (percent control) on sicklepod; details: comparison as worded in the text of the example
Prickly sida (SIDSP) = assay: Herbicidal effectiveness (percent control) on prickly sida; details: comparison as worded in the text of the example
From the text: as §1
as §2, with “pots. […]” for “pots.”
as §3
as §4, with “evaluation. […]” for “evaluation.”
as §5

hemp sesbania (SEBEX) = assay: Herbicidal effectiveness (percent control) on hemp sesbania; details: comparison as worded in the text of the example
From the text: as §1
as §2, with “pots. […]” for “pots.”
as §3
as §4, with “evaluation. […]” for “evaluation.”
as §5

[3] = system: Yellow nutsedge (Cyperus esculentus, CYPES); assay: Herbicidal effectiveness (percent control) on yellow nutsedge; details: 0.03% oxalic acid in potassium glyphosate tank mixes
morningglory (IPOSS) = assay: Herbicidal effectiveness (percent control) on morningglory; details: comparison as worded in the text of the example
From the text: as §1
as §2, with “pots. […]” for “pots.”
as §3
as §4, with “evaluation. […]” for “evaluation.”
as §5

[4] = comparison as worded in the text of the example

## CC(O)C(=O)O (centres unmarked) [Lactic acid]
[1]; [4]
  herbicidal efficacy on velvetleaf (ABUTH), result in words: did not significantly effect the efficacy

## O=C([O-])C(=O)[O-].[K+].[K+] [Dipotassium oxalate, dipotassium oxalate]
[1]; [4]
  herbicidal efficacy on velvetleaf (ABUTH), result in words: enhanced efficacy regardless of the glyphosate salt
[2]
  herbicidal efficacy on ECHCF (barnyardgrass), result in words: relatively ineffective for enhancing efficacy against barnyardgrass

## O=C(O)CCC(=O)O [Succinic acid]
[1]; [4]
  herbicidal efficacy on velvetleaf (ABUTH), result in words: did not significantly effect the efficacy

## O=P(O)(O)O [Phosphoric acid]
[1]; [4]
  herbicidal efficacy on velvetleaf (ABUTH), result in words: did not significantly effect the efficacy
[1]; comparison as worded in the text of the example, listed as phosphoric acid
  herbicidal efficacy on velvetleaf (ABUTH), result in words: did not have significant impact on the efficacy

## O=C(O)CCCCC(=O)O [adipic acid, Adipic acid]
[1]; [4]
  herbicidal efficacy on velvetleaf (ABUTH), result in words: some increased efficacy

## C[N+](C)(C)Cc1ccccc1.[OH-] [Benzyltrimethylammonium hydroxide]
[1]; [4]
  herbicidal efficacy on velvetleaf (ABUTH), result in words: better efficacy than did the commercial Roundup UltraMax standard

## O=C(O)[C@H](O)[C@@H](O)[C@H](O)[C@H](O)CO [Gluconic acid]
[1]; [4]
  herbicidal efficacy on velvetleaf (ABUTH), result in words: did not significantly effect the efficacy

## C[N+](C)(C)Cc1ccccc1.[Cl-] [Benzyltrimethylammonium chloride]
[1]; [4]
  herbicidal efficacy on velvetleaf (ABUTH), result in words: better efficacy than did the commercial Roundup UltraMax standard

## O=C(O)CC(O)(CC(=O)O)C(=O)O [Citric acid]
[1]; [4]
  herbicidal efficacy on velvetleaf (ABUTH), result in words: did not significantly effect the efficacy
[1]; comparison as worded in the text of the example, listed as citric acid
  herbicidal efficacy on velvetleaf (ABUTH), result in words: did not have significant impact on the efficacy

## NC(=O)CCC(=O)O [Succinamic acid]
[1]; [4]
  herbicidal efficacy on velvetleaf (ABUTH), result in words: antagonistic effect on glyphosate efficacy

## CC(=O)O [Acetic acid]
[1]; [4]
  herbicidal efficacy on velvetleaf (ABUTH), result in words: did not significantly effect the efficacy

## O=C(O)C(=O)O [Oxalic acid]
[1]
  herbicidal efficacy on velvetleaf (ABUTH), result in words: further increased efficacy
Velvetleaf (ABUTH)
  rainfastness on velvetleaf, result in words: did not provide any rainfastness properties for Roundup UltraMax on velvetleaf
Indian Mustard (BRSJU)
  herbicidal efficacy on Indian mustard (BRSJU), result in words: did not provide significant efficacy enhancement on Indian mustard
Sicklepod (CASOB)
  herbicidal efficacy on sicklepod (CASOB), result in words: did not give statistically significant efficacy enhancement on sicklepod
Prickly sida (SIDSP)
  herbicidal efficacy on prickly sida (SIDSP), result in words: gave efficacy enhancement
Hemp sesbania (SEBEX)
  herbicidal efficacy on hemp sesbania (SEBEX), result in words: equal with the standards regardless of the presence of oxalic acid
[3]
  herbicidal efficacy on yellow nutsedge (CYPES), result in words: did not provide synergy on yellow nutsedge
Morningglory (IPOSS)
  herbicidal efficacy on morningglory (IPOSS), result in words: equally effective in enhancing Roundup UltraMax efficacy on morningglory
[2]
  herbicidal efficacy on ECHCF (barnyardgrass), result in words: did not significantly enhance glyphosate efficacy on barnyardgrass
